Laboratory results: US20100286131A1, “VIRAL POLYMERASE INHIBITORS” (BOEHRINGER INGELHEIM INTERNATIONAL GMBH, priority 2007, published 2010)

Experiments:
[1] = test system: cells expressing a stable subgenomic HCV replicon; experiment: Cell-based luciferase reporter HCV RNA replication assay; settings: Hepatitis C virus, inhibition of HCV RNA replication, assay of WO 2005/028501
Description: Cell-Based Luciferase Reporter HCV RNA Replication Assay
Compounds of the invention are tested for activity as inhibitors of hepatitis C virus RNA replication in cells expressing a stable subgenomic HCV replicon, using the assay described in WO 2005/028501, herein incorporated by reference. Table 4 lists representative compounds of the invention with their EC50 values and a comparative non-fluorinated analog wherein the presence of the fluorine atom provided an unexpected improvement in cell-based potency.

[2] = In vitro metabolism in male human liver microsomes (HLM); type: in vitro ADME; settings: 1 mg microsomal protein, 2.5 mM NADPH, 2 μM compound, pH 7.4, 37° C.
Description: Male human liver microsomes are purchased from Gentest. The pool consisted of microsomes from several donors. The in vitro metabolism in liver microsomes is carried out in a reaction media containing 1 mg of microsomal protein, 2.5 mM NADPH and 2 μM compound in a total volume of 1 ml of 0.066 M Tris buffer, pH 7.4 for 20 minutes at 37° C. Reactions are initiated by the addition of NADPH and terminated at the appropriate times by quenching with an equal volume of a 1:1 mixture of acetonitrile:methanol.

Row | SMILES | EC50 [1] | HLM [2]
1 | CC(C)N(c1cc(F)c(Oc2ccc(Cn3ccc4cccnc43)cc2C(F)(F)F)cc1C(=O)O)C(=O)[C@H]1CC[C@H](C)CC1 [Compound 3033] | 145 nM | –
2 | CC(C)N(c1ccc(Oc2ccc(Cn3ccc4cccnc43)cc2C(F)(F)F)cc1C(=O)O)C(=O)[C@H]1CC[C@H](C)CC1 | 265 nM | –
3 | CC(C)N(c1ccc(Oc2ncc(CN3CCC(F)(F)C3)cc2C(F)(F)F)cc1C(=O)O)C(=O)[C@H]1CC[C@H](C)CC1 | 89 nM | –
4 | Cc1ccc(OCc2cnc(Oc3cc(C(=O)O)c(N(C(=O)[C@H]4CC[C@H](C)CC4)C(C)C)cc3F)c(C(F)(F)F)c2)c(C)n1 [Compound 1058] | 39.5 nM | –
5 | CC(C)N(c1cc(F)c(Oc2ncccc2C(F)(F)F)cc1C(=O)O)C(=O)[C@H]1CC[C@H](C)CC1 [Compound 1011] | – | 136 min
6 | Cc1nc(Cc2cnc(Oc3cc(C(=O)O)c(N(C(=O)[C@H]4CC[C@H](C)CC4)C(C)C)cc3F)c(C(F)(F)F)c2)cs1 [Compound 1072] | – | 129 min
7 | CC(C)N(c1cc(F)c(Oc2ccc(Cn3cccc4ccnc3-4)cc2C(F)(F)F)cc1C(=O)O)C(=O)[C@H]1CC[C@H](C)CC1 [Compound 3016] | 72.5 nM | –
8 | CC(C)N(c1ccc(Cc2ccc(Cn3cccc4ccnc3-4)cc2C(F)(F)F)cc1C(=O)O)C(=O)[C@H]1CC[C@H](C)CC1 | 208 nM | –
9 | CC(C)N(c1ccc(Oc2ncccc2C(F)(F)F)cc1C(=O)O)C(=O)[C@H]1CC[C@H](C)CC1 | – | 69 min
10 | CC(C)N(c1cc(F)c(Oc2ncc(Cn3cnnc3)cc2C(F)(F)F)cc1C(=O)O)C(=O)[C@H]1CC[C@H](C)CC1 [Compound 1042] | 47 nM | –
11 | CC(C)N(c1ccc(Oc2ncc(Cn3cnnc3)cc2C(F)(F)F)cc1C(=O)O)C(=O)[C@H]1CC[C@H](C)CC1 | 160 nM | –
12 | Cc1ccc(OCc2cnc(Oc3ccc(N(C(=O)[C@H]4CC[C@H](C)CC4)C(C)C)c(C(=O)O)c3)c(C(F)(F)F)c2)c(C)n1 | 86.5 nM | –
13 | Cc1nc(Cc2ccc(Oc3ccc(N(C(=O)[C@H]4CC[C@H](C)CC4)C(C)C)c(C(=O)O)c3)c(C(F)(F)F)c2)cs1 | – | 29 min
14 | CC(C)N(c1cc(F)c(Oc2ncc(CN3CCC(F)(F)C3)cc2C(F)(F)F)cc1C(=O)O)C(=O)[C@H]1CC[C@H](C)CC1 [Compound 1101] | 41.5 nM | –
